Test results reported in patent US20250360092A1, “Carotenoid-fortified Yogurt and Methods For Preparing The Same” (Maravilla, LLC, priority 2024, published 2025).

Assay type: physicochemical
Details: start of the thirty-five-day storage at 4° C.
Method: Lutein and Zeaxanthin Stability Over Shelf Life. […] The stability may be influenced by the way lutein was added to the yogurt. When lutein is introduced post-fermentation via stirring, it tends to degrade in a concentration-dependent manner. […] This phenomenon may be attributed to the consumption of oxygen in milk by Lactobacillus bulgaricus during fermentation. […] The samplings were weighted into […] falcon tubes and 4 milliliters of tetrahydrofuran containing 0.1% was added to each sampling. The mixtures were vortexed for 30 seconds and centrifuged at 3500 grams for 5 minute at 20° C. […] The three extracts were then pooled and dried in the vacuum centrifuge at less than 30° C. and the dry residue was resuspended in 10 milliliters of acetone and read in the spectrophotometer. […] Carotenoid profiling, relative purity and quantification were carried out in a HPLC 1260 Infinity Series (Agilent Technologies, Santa Clara, CA, USA), equipped with a diode array detector, quaternary pump, degasser, thermostatically-controlled column compartment, and a thermostatically-controlled autosampler. […] For carotenoid quantification in human serum, 100 microliters of a sampling were injected. […] Differences in serum carotenoid concentration at each time point were assessed by paired t-test.

| starting concentration in the lutein-fortified yogurt sample [mg/100 g] | Structure (SMILES) |
| --- | --- |
| 14.60±0.41 | CC1=C[C@H](O)CC(C)(C)[C@H]1/C=C/C(C)=C/C=C/C(C)=C/C=C/C=C(C)/C=C/C=C(C)/C=C/C1=C(C)C[C@@H](O)CC1(C)C [Lutein, lutein] |
| 0.71±0.02 | CC1=C(/C=C/C(C)=C/C=C/C(C)=C/C=C/C=C(C)/C=C/C=C(C)/C=C/C2=C(C)C[C@@H](O)CC2(C)C)C(C)(C)C[C@H](O)C1 [Zeaxanthin, zeaxanthin] |
